Measurements taken from patent US20240246960A1 (adMare Therapeutics Society, priority 2021, published 2024).
pIC50: −log10 of the molar value.

The compounds below were run against T1, DNA-PK phosphorylation at Serine 2056 (Homo sapiens, UniProt P78527) (assay: Cellular Assay for Inhibition of DNA-PK Phosphorylation at Serine 2056 (FaDu cells, neocarzinostatin, sandwich ELISA)). Conditions: Table 3.
T1 construct: host or cells: FaDu
Type: cell-based
Method: FaDu cells were purchased from ATCC and maintained in MEM alpha medium (Life Technologies, cat. no. 12561) supplemented with 10% fetal bovine serum, and 1% GlutaMAX at 37° C. supplemented with 5% CO2. 50,000 cells were seeded to each well of a 96-well cell culture plate in 50 μL of culture medium and incubated for 16-24 hours. Three-fold serially diluted compounds were prepared in DMSO. Culture media was used to prepare compound treatments to 0.3% DMSO (dimethyl sulphoxide) content. Compound treatments were added to the cells for 1 hour prior incubation, followed by the addition of neocarzinostatin in fresh culture medium to 1 μg/mL final concentration for an additional 2 hours incubation to induce DNA DSBs (double-strand breaks). DMSO controls were incubated with fresh culture medium alone for the additional two hours incubation. The cells were then lysed and frozen at −20° C. Cell lysates were thawed on wet ice and protein concentrations quantified by BCA Protein Assay (Thermo # 23225). Lysis buffer was used to normalize lysates by protein content and all lysates were then investigated by sandwich ELISA by means of DNA-PK-specific antibodies (Abcam ab44815: total DNA-PK; ab124918: phosphoserine-2056 DNA-PK) in sandwich ELISA format on the MSD S600MM platform (MesoScale Discovery). % inhibition was calculated for all data points: =1−(DATA_PT−AVERAGE(DMSO controls))/(AVERAGE(NCS controls)−AVERAGE(DMSO controls)). Logarithm of the molar concentration of compound was plotted against percent inhibition to calculate IC50 values, with curve fit settings for data fit to log(inhibitor) vs. normalized response—Variable slope using curve fit software (GraphPad Prism).

Structure (SMILES) | pIC50
CNC(=O)c1ccnc(N[C@H]2CC[C@@H](Oc3nc(N4CCOCC4)cc4ncc(NS(C)(=O)=O)cc34)CC2)n1 | > 7.00
Cc1ccc(F)c(N[C@H]2CC[C@@H](Oc3nc(N4CCOCC4)cc4ncc(NS(C)(=O)=O)cc34)CC2)n1 [LFA1001, N-[5-[4-[(3-fluoro-6-methyl-2-pyridyl)amino]cyclohexoxy]-7-morpholino-1,6-naphthyridin-3-yl]methanesulfonamide] | 6.00 to 7.00
CS(=O)(=O)Nc1cnc2cc(N3CCOCC3)nc(O[C@H]3CC[C@@H](Nc4cccnc4)CC3)c2c1 [LFA1002, N-[7-morpholino-5-[4-(3-pyridylamino)cyclohexoxy]-1,6-naphthyridin-3-yl]methanesulfonamide] | > 7.00
Cc1cccnc1N[C@H]1CC[C@@H](Oc2nc(N3CCOCC3)cc3ncc(NS(C)(=O)=O)cc23)CC1 [LFA1003, N-[5-[4-[(3-methyl-2-pyridyl)amino]cyclohexoxy]-7-morpholino-1,6-naphthyridin-3-yl]methanesulfonamide] | > 7.00
CS(=O)(=O)Nc1cnc2cc(N3CCOCC3)nc(O[C@H]3CC[C@@H](Nc4ccc(F)cn4)CC3)c2c1 [LFA1004, N-[5-[4-[(5-fluoro-2-pyridyl)amino]cyclohexoxy]-7-morpholino-1,6-naphthyridin-3-yl]methanesulfonamide] | > 7.00
COc1cccnc1N[C@H]1CC[C@@H](Oc2nc(N3CCOCC3)cc3ncc(NS(C)(=O)=O)cc23)CC1 [LFA1005, N-[5-[4-[(3-methoxy-2-pyridyl)amino]cyclohexoxy]-7-morpholino-1,6-naphthyridin-3-yl]methanesulfonamide] | > 7.00
Cc1cccc(N[C@H]2CC[C@@H](Oc3nc(N4CCOCC4)cc4ncc(NS(C)(=O)=O)cc34)CC2)n1 [LFA1006, N-[5-[4-[(6-methyl-2-pyridyl)amino]cyclohexoxy]-7-morpholino-1,6-naphthyridin-3-yl]methanesulfonamide] | > 7.00
CS(=O)(=O)Nc1cnc2cc(N3CCOCC3)nc(O[C@H]3CC[C@@H](Nc4ncccc4F)CC3)c2c1 [LFA1007, N-[5-[4-[(3-fluoro-2-pyridyl)amino]cyclohexoxy]-7-morpholino-1,6-naphthyridin-3-yl]methanesulfonamide] | > 7.00
CS(=O)(=O)Nc1cnc2cc(N3CCOCC3)nc(O[C@H]3CC[C@@H](Nc4ncccc4C#N)CC3)c2c1 [LFA1008, N-[5-[4-[(3-cyano-2-pyridyl)amino]cyclohexoxy]-7-morpholino-1,6-naphthyridin-3-yl]methanesulfonamide] | > 7.00
Cc1cnc(N[C@H]2CC[C@@H](Oc3nc(N4CCOCC4)cc4ncc(NS(C)(=O)=O)cc34)CC2)c(C)c1 [LFA1009, N-[5-[4-[(3,5-dimethyl-2-pyridyl)amino]cyclohexoxy]-7-morpholino-1,6-naphthyridin-3-yl]methanesulfonamide] | > 7.00
COc1ccc(C)nc1N[C@H]1CC[C@@H](Oc2nc(N3CCOCC3)cc3ncc(NS(C)(=O)=O)cc23)CC1 [LFA1010, N-[5-[4-[(3-methoxy-6-methyl-2-pyridyl)amino]cyclohexoxy]-7-morpholino-1,6-naphthyridin-3-yl]methanesulfonamide] | 6.00 to 7.00
Cc1cnc(N[C@H]2CC[C@@H](Oc3nc(N4CCOCC4)cc4ncc(NS(C)(=O)=O)cc34)CC2)c(F)c1 [LFA1011, N-[5-[4-[(3-fluoro-5-methyl-2-pyridyl)amino]cyclohexoxy]-7-morpholino-1,6-naphthyridin-3-yl]methanesulfonamide] | > 7.00
Cc1ccncc1N[C@H]1CC[C@@H](Oc2nc(N3CCOCC3)cc3ncc(NS(C)(=O)=O)cc23)CC1 [LFA1012] | > 7.00
COc1cncc(N[C@H]2CC[C@@H](Oc3nc(N4CCOCC4)cc4ncc(NS(C)(=O)=O)cc34)CC2)c1 [LFA1013, N-[5-[4-[(5-methoxy-3-pyridyl)amino]cyclohexoxy]-7-morpholino-1,6-naphthyridin-3-yl]methanesulfonamide] | 6.00 to 7.00
CS(=O)(=O)Nc1cnc2cc(N3CCOCC3)nc(O[C@H]3CC[C@@H](Nc4ccncc4Br)CC3)c2c1 [LFA1014, N-[5-[4-[(3-bromo-4-pyridyl)amino]cyclohexoxy]-7-morpholino-1,6-naphthyridin-3-yl]methanesulfonamide] | > 7.00
Cc1ncccc1N[C@H]1CC[C@@H](Oc2nc(N3CCOCC3)cc3ncc(NS(C)(=O)=O)cc23)CC1 [LFA1015, N-[5-[4-[(2-methyl-3-pyridyl)amino]cyclohexoxy]-7-morpholino-1,6-naphthyridin-3-yl]methanesulfonamide] | > 7.00
COc1ccncc1N[C@H]1CC[C@@H](Oc2nc(N3CCOCC3)cc3ncc(NS(C)(=O)=O)cc23)CC1 [LFA1016, N-[5-[4-[(4-methoxy-3-pyridyl)amino]cyclohexoxy]-7-morpholino-1,6-naphthyridin-3-yl]methanesulfonamide] | > 7.00
Cc1ccc(N[C@H]2CC[C@@H](Oc3nc(N4CCOCC4)cc4ncc(NS(C)(=O)=O)cc34)CC2)cn1 [LFA1017, N-[5-[4-[(6-methyl-3-pyridyl)amino]cyclohexoxy]-7-morpholino-1,6-naphthyridin-3-yl]methanesulfonamide] | 6.00 to 7.00
Cc1nc(N[C@H]2CC[C@@H](Oc3nc(N4CCOCC4)cc4ncc(NS(C)(=O)=O)cc34)CC2)ccc1F [LFA1018, N-[5-[4-[(5-fluoro-6-methyl-2-pyridyl)amino]cyclohexoxy]-7-morpholino-1,6-naphthyridin-3-yl]methanesulfonamide] | > 7.00
Cc1ccc(N[C@H]2CC[C@@H](Oc3nc(N4CCOCC4)cc4ncc(NS(C)(=O)=O)cc34)CC2)nc1 [LFA1019, N-[5-[4-[(5-methyl-2-pyridyl)amino]cyclohexoxy]-7-morpholino-1,6-naphthyridin-3-yl]methanesulfonamide] | > 7.00
CS(=O)(=O)Nc1cnc2cc(N3CCOCC3)nc(O[C@H]3CC[C@@H](Nc4cccnn4)CC3)c2c1 [LFA1020, N-[7-morpholino-5-[4-(pyridazin-3-ylamino)cyclohexoxy]-1,6-naphthyridin-3-yl]methanesulfonamide] | > 7.00
CS(=O)(=O)Nc1cnc2cc(N3CCOCC3)nc(O[C@H]3CC[C@@H](Nc4ccc(C(F)(F)F)cn4)CC3)c2c1 [LFA1021, N-[7-morpholino-5-[4-[[5-(trifluoromethyl)-2-pyridyl]amino]cyclohexoxy]-1,6-naphthyridin-3-yl]methanesulfonamide] | > 7.00
CS(=O)(=O)Nc1cnc2cc(N3CCOCC3)nc(O[C@H]3CC[C@@H](Nc4ccc(C#N)cn4)CC3)c2c1 [LFA1022, N-[5-[4-[(5-cyano-2-pyridyl)amino]cyclohexoxy]-7-morpholino-1,6-naphthyridin-3-yl]methanesulfonamide] | > 7.00
CS(=O)(=O)Nc1cnc2cc(N3CCOCC3)nc(O[C@H]3CC[C@@H](Nc4ccc(C#N)nn4)CC3)c2c1 [LFA1023, N-[5-[4-[(6-cyanopyridazin-3-yl)amino]cyclohexoxy]-7-morpholino-1,6-naphthyridin-3-yl]methanesulfonamide] | > 7.00
CS(=O)(=O)Nc1cnc2cc(N3CCOCC3)nc(O[C@H]3CC[C@@H](Nc4ncc(F)cc4F)CC3)c2c1 [LFA1024, N-[5-[4-[(3,5-difluoro-2-pyridyl)amino]cyclohexoxy]-7-morpholino-1,6-naphthyridin-3-yl]methanesulfonamide] | > 7.00
